# Source: PubChem BioAssay AID1918949 (Molecular Pharmacology Branch, DTP, NCI, 2023)
# Tested on: K24384-001-R-PDC complex spheroid viability
# Test: Anticancer human tumor K24384-001-R-PDC patient-derived pancreatic adenocarcinoma cell line growth inhibition
# Details: for IC50: curve of first compound; for viability, T/C: stronger effect = lower value
# Outline: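 Drug combinations with the LSD1 inhibitor iadademstat tested on tumor cells co-cultured as spheroids with endothelial cells and mesenchymal stem cells. Concentrations descended in half-log increments from clinical Cmax or 10 microM.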
# [1] = second compound 0.1 µM, first compound 0.000316 µM
# [2] = second compound 0.1 µM, first compound 0.001 µM
# [3] = second compound 0.1 µM, first compound 0.00316 µM
# [4] = second compound 0.1 µM, first compound 0.01 µM
# [5] = second compound 0.1 µM, first compound 0.0316 µM
# [6] = second compound 0.1 µM, first compound 0.1 µM
# [7] = second compound 0.316 µM, first compound 0.000316 µM
# [8] = second compound 0.316 µM, first compound 0.001 µM
# [9] = second compound 0.316 µM, first compound 0.00316 µM
# [10] = second compound 0.316 µM, first compound 0.01 µM
# [11] = second compound 0.316 µM, first compound 0.0316 µM
# [12] = second compound 0.316 µM, first compound 0.1 µM
# [13] = second compound 1 µM, first compound 0.000316 µM
# [14] = second compound 1 µM, first compound 0.001 µM
# [15] = second compound 1 µM, first compound 0.00316 µM
# [16] = second compound 1 µM, first compound 0.01 µM
# [17] = second compound 1 µM, first compound 0.0316 µM
# [18] = second compound 1 µM, first compound 0.1 µM
# [19] = second compound 3.16 µM, first compound 0.000316 µM
# [20] = second compound 3.16 µM, first compound 0.001 µM
# [21] = second compound 3.16 µM, first compound 0.00316 µM
# [22] = second compound 3.16 µM, first compound 0.01 µM
# [23] = second compound 3.16 µM, first compound 0.0316 µM
# [24] = second compound 3.16 µM, first compound 0.1 µM
# [25] = second compound 10 µM, first compound 0.000316 µM
# [26] = second compound 10 µM, first compound 0.001 µM
# [27] = second compound 10 µM, first compound 0.00316 µM
# [28] = second compound 10 µM, first compound 0.01 µM
# [29] = second compound 10 µM, first compound 0.0316 µM
# [30] = second compound 10 µM, first compound 0.1 µM
# 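Also: spheroids exposed to agents for seven days before luminescence viability reading.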
# 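For viability, T/C in this document: 100% = DMSO vehicle control viability.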
SMILES,IC50 (second compound 0.1 µM),IC50 (second compound 0.316 µM),IC50 (second compound 1 µM),IC50 (second compound 3.16 µM),IC50 (second compound 10 µM),"viability, T/C [3]","viability, T/C [4]","viability, T/C [5]","viability, T/C [6]","viability, T/C [9]","viability, T/C [10]","viability, T/C [11]","viability, T/C [12]","viability, T/C [15]","viability, T/C [16]","viability, T/C [17]","viability, T/C [18]","viability, T/C [21]","viability, T/C [22]","viability, T/C [23]",also measured
CC(C)CC(NC(=O)C(Cc1ccccc1)NC(=O)c1cnccn1)B(O)O (stereo not given) + NC1CCC(NC2CC2c2ccccc2)CC1,0.464 nM,0.476 nM,0.38 nM,0.345 nM,0.422 nM,0.23%,0.12%,0.2%,0.23%,0.26%,0.08%,0.76%,1.15%,0.15%,0.08%,0.09%,0.19%,0.27%,0.11%,0.12%,"viability, T/C [1]: 74%; viability, T/C [2]: 1.78%; viability, T/C [7]: 76.5%; viability, T/C [8]: 1.74%; viability, T/C [13]: 59.1%; viability, T/C [14]: 2.07%; viability, T/C [19]: 53.9%; viability, T/C [20]: 1.45%; viability, T/C [24]: 0.18%; viability, T/C [25]: 64.1%; viability, T/C [26]: 8.36%; viability, T/C [27]: 2.45%; viability, T/C [28]: 0.22%; viability, T/C [29]: 0.21%; viability, T/C [30]: 0.3%"
CC(C)CC(NC(=O)CNC(=O)c1cc(Cl)ccc1Cl)B1OC(=O)CC(CC(=O)O)(C(=O)O)O1 (stereo not given) + NC1CCC(NC2CC2c2ccccc2)CC1,7.55 nM,5.78 nM,6.08 nM,5.59 nM,5 nM,82.7%,40.4%,3.3%,0.72%,75.4%,27.2%,3.1%,0.77%,75.1%,30.9%,4.13%,0.7%,74.1%,26.5%,2.82%,"viability, T/C [1]: 100%; viability, T/C [2]: 90.2%; viability, T/C [7]: 97.4%; viability, T/C [8]: 91.9%; viability, T/C [13]: 89.9%; viability, T/C [14]: 87.7%; viability, T/C [19]: 92.1%; viability, T/C [20]: 78.3%; viability, T/C [24]: 0.68%; viability, T/C [25]: 92.9%; viability, T/C [26]: 75.7%; viability, T/C [27]: 69.8%; viability, T/C [28]: 22.8%; viability, T/C [29]: 2.54%; viability, T/C [30]: 0.55%"
COc1cc(Nc2ncc3c(n2)-c2ccc(Cl)cc2C(c2c(F)cccc2OC)=NC3)ccc1C(=O)O + NC1CCC(NC2CC2c2ccccc2)CC1,> 1000 nM,> 1000 nM,> 1000 nM,> 1000 nM,> 1000 nM,82.2%,91.4%,70.1%,54.5%,87.8%,72%,71%,56.7%,71.1%,87.3%,59.8%,53.8%,83.7%,77.6%,62.2%,"viability, T/C (second compound 0.1 µM, first compound 0.316 µM): 58.4%; viability, T/C (second compound 0.1 µM, first compound 1 µM): 84.1%; viability, T/C (second compound 0.316 µM, first compound 0.316 µM): 52.2%; viability, T/C (second compound 0.316 µM, first compound 1 µM): 58.6%; viability, T/C (second compound 1 µM, first compound 0.316 µM): 67.3%; viability, T/C (second compound 1 µM, first compound 1 µM): 60.7%; viability, T/C [24]: 57.3%; viability, T/C (second compound 3.16 µM, first compound 0.316 µM): 51.9%; viability, T/C (second compound 3.16 µM, first compound 1 µM): 60.6%; viability, T/C [27]: 80.8%; viability, T/C [28]: 84.1%; viability, T/C [29]: 58.9%; viability, T/C [30]: 58.8%; viability, T/C (second compound 10 µM, first compound 0.316 µM): 52.4%; viability, T/C (second compound 10 µM, first compound 1 µM): 60.8%"
